Our source for the IC50 values is patent publication US12459951B2, “Compounds that interact with RAS superfamily proteins for treatment of cancers, inflammatory diseases, rasopathies, and fibrotic disease” (SHY Therapeutics, LLC, priority 2022, dated 2025).

For the first test, the system named is MiaPaca-2 (expressing KRAS G12C mutant). Description: Proliferation Assay (Cell Viability Assay). Particulars: Homo sapiens, MIA PaCa-2; Proliferation assay, MiaPaca-2; read-out: MiaPaca-2 IC50 (nM) Pancreatic. Type of test: cell-based. In a few lines: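 After 2–4 days' exposure at 37 °C, 5% CO2 to a single 10 μM final concentration or a dilution series (IC50), percent proliferation inhibition was derived from CellTiter 96 Aqueous One viability readings. The medium contained 0.3% DMSO and 10% FBS. KRAS G12C MiaPaca-2 cells were plated at 2000–5000/well the day before.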
Regarding `COc1cc(Nc2nc(-c3nccn3C)nn3cc(-c4ccn(C)n4)c(C)c23)ncc1C1CC1` [Compound 238, N-(5-Cyclopropyl-4-methoxypyridin-2-yl)-5-methyl-2-(1-methyl-1H-imidazol-2-yl)-6-(1-methyl-1H-pyrazol-3-yl)pyrrolo[2,1-f][1,2,4]triazin-4-amine], the IC50 fell in the range of 1 to 10 nM.
Turning to `Cc1c(-c2ccn(C)n2)cn2nc(-c3nccn3C)nc(Nc3cc(N4CCOCC4)ccn3)c12` [Compound 222, 5-Methyl-2-(1-methyl-1H-imidazol-2-yl)-6-(1-methyl-1H-pyrazol-3-yl)-N-(4-morpholinopyridin-2-yl)pyrrolo[2,1-f][1,2,4]triazin-4-amine], the IC50 was in the range of 1 to 10 nM.

Still in this test, the particulars now being: Homo sapiens, MIA PaCa-2; read-out: Proliferation in MiaPaca-2: IC50.
On to `COc1ccc(Nc2nc(-c3nccn3C)nn3cc(-c4ccn(C)n4)c(C)c23)nc1` [Compound 224, N-(5-Methoxypyridin-2-yl)-5-methyl-2-(1-methyl-1H-imidazol-2-yl)-6-(1-methyl-1H-pyrazol-3-yl)pyrrolo[2,1-f][1,2,4]triazin-4-amine], for which the IC50 was below 150 nM.
`CO[C@H]1CC[C@H](Nc2nc(-c3nccn3C)nn3cc(-c4ccn(C)n4)c(C(=O)NCC(F)(F)F)c23)C1` (racemic) [Compound 181, 4-(((1S,3S)-3-Methoxycyclopentyl)amino)-2-(1-methyl-1H-imidazol-2-yl)-6-(1-methyl-1H-pyrazol-3-yl)-N-(2,2,2-trifluoroethyl)pyrrolo[2,1-f][1,2,4]triazine-5-carboxamide]: the IC50 is above 1000 nM.
Turning to `COc1ccnc(Nc2nc(-c3nccn3C)nn3cc(-c4ccn(C)n4)c(C(=O)NCC(F)(F)F)c23)c1` [Compound 174, 4-((4-Methoxypyridin-2-yl)amino)-2-(1-methyl-1H-imidazol-2-yl)-6-(1-methyl-1H-pyrazol-3-yl)-N-(2,2,2-trifluoro-ethyl)pyrrolo[2,1-f][1,2,4]triazine-5-carboxamide], the IC50 lay in the range of 150 to 500 nM.
The same measure, in the same setting: the same measure for `COc1cnc(Nc2nc(-c3nccn3C)nn3cc(-c4ccn(C)n4)c(C)c23)cc1C` [Compound 236, N-(5-Methoxy-4-methylpyridin-2-yl)-5-methyl-2-(1-methyl-1H-imidazol-2-yl)-6-(1-methyl-1H-pyrazol-3-yl)pyrrolo[2,1-f][1,2,4]triazin-4-amine]: 150 to 500 nM.
As to `COc1ccnc(Nc2nc(-c3nccn3C)nn3cc(-c4ccn(C)n4)c(C(=O)NCCN(C)C)c23)c1` [Compound 177, N-(2-(Dimethylamino)ethyl)-4-((4-methoxypyridin-2-yl)amino)-2-(1-methyl-1H-imidazol-2-yl)-6-(1-methyl-1H-pyrazol-3-yl)pyrrolo[2,1-f][1,2,4]triazine-5-carboxamide], the IC50 was above 1000 nM.
As to `COc1ccnc(Nc2nc(-c3nccn3CCNC(=O)CCCC[C@H]3SC[C@H]4NC(=O)N[C@H]43)nn3cc(-c4ccn(C)n4)c(C)c23)c1` [Compound 216, N-(2-(2-(4-((4-methoxypyridin-2-yl)amino)-5-methyl-6-(1-methyl-1H-pyrazol-3-yl)pyrrolo[2,1-f][1,2,4]triazin-2-yl)-1H-imidazol-1-yl)ethyl)-5-((3aR,4R,6aS)-2-oxohexahydro-1H-thieno[3,4-d]imidazol-4-yl)pentanamide], the IC50 was above 1000 nM.
Turning to `Cc1c(-c2ccn(C)n2)cn2nc(-c3nccn3C)nc(Nc3ccc(C(F)(F)F)cn3)c12` [Compound 233, 5-Methyl-2-(1-methyl-1H-imidazol-2-yl)-6-(1-methyl-1H-pyrazol-3-yl)-N-(5-(trifluoromethyl)pyridin-2-yl)pyrrolo[2,1-f][1,2,4]triazin-4-amine], the IC50 was below 150 nM.
With `CO[C@H]1CC[C@H](Nc2nc(-c3nccn3C)nn3cc(-c4ccn(C)n4)c(C(=O)NCCN4CCOCC4)c23)C1` (racemic) [Compound 185, rac 4-(((1S,3S)-3-methoxycyclo-pentyl)amino)-2-(1-methyl-1H-imidazol-2-yl)-6-(1-methyl-1H-pyrazol-3-yl)-N-(2-morpholino-ethyl)pyrrolo[2,1-f][1,2,4]triazine-5-carboxamide], the IC50 is above 1000 nM.
On the same count and under the same terms, to `COc1ccnc(Nc2nc(-c3nccn3C)nn3cc(-c4ccn(C)n4)c(C(=O)N4CCOCC4)c23)c1` [Compound 179, (4-((4-Methoxypyridin-2-yl)amino)-2-(1-methyl-1H-imidazol-2-yl)-6-(1-methyl-1H-pyrazol-3-yl)pyrrolo[2,1-f][1,2,4]triazin-5-yl)(morpho-lino)methanone] belongs above 1000 nM; to `COc1ccc(N(C)c2nc(-c3nccn3C)nn3cc(-c4ccn(C)n4)c(C)c23)nc1` [Compound 225, N-(5-Methoxypyridin-2-yl)-N,5-dimethyl-2-(1-methyl-1H-imidazol-2-yl)-6-(1-methyl-1H-pyrazol-3-yl)pyrrolo[2,1-f][1,2,4]triazin-4-amine], above 1000 nM; to `COCCNC(=O)c1c(-c2ccn(C)n2)cn2nc(-c3nccn3C)nc(N[C@H]3CC[C@H](OC)C3)c12` (racemic) [Compound 183, rac 4-(((1S,3S)-3-Methoxycyclo-pentyl)amino)-N-(2-methoxyethyl)-2-(1-methyl-1H-imidazol-2-yl)-6-(1-methyl-1H-pyrazol-3-yl)pyrrolo[2,1-f][1,2,4]triazine-5-carboxamide], above 1000 nM.
Take `COc1cccc(-c2cn3nc(-c4nccn4C)nc(N[C@H]4C[C@H](OC)C4)c3c2-c2ccccc2)c1OC` [Compound 219, 6-(2,3-Dimethoxyphenyl)-N-((1r,3r)-3-methoxycyclobutyl)-2-(1-methyl-1H-imidazol-2-yl)-5-phenylpyrrolo[2,1-f][1,2,4]triazin-4-amine]: the IC50 lay in the range of 510 to 1000 nM.
Regarding `Cc1ccc(Nc2nc(-c3nccn3C)nn3cc(-c4ccn(C)n4)c(C)c23)nc1` [Compound 226, 5-Methyl-2-(1-methyl-1H-imidazol-2-yl)-6-(1-methyl-1H-pyrazol-3-yl)-N-(5-methylpyridin-2-yl)pyrrolo[2,1-f][1,2,4]triazin-4-amine], the IC50 was below 150 nM.
Take `Cc1c(-c2ccn(C)n2)cn2nc(-c3nccn3C)nc(Nc3ccc(N(C)C)cn3)c12` [Compound 227, N5,N5-Dimethyl-N2-(5-methyl-2-(1-methyl-1H-imidazol-2-yl)-6-(1-methyl-1H-pyrazol-3-yl)pyrrolo[2,1-f][1,2,4]triazin-4-yl)pyridine-2,5-diamine]: the IC50 is below 150 nM.
As to `CO[C@H]1CC[C@H](Nc2nc(-c3nccn3C)nn3cc(-c4ccn(C)n4)c(C(=O)NC4CC4)c23)C1` (racemic) [Compound 182, rac N-Cyclopropyl-4-(((1S,3S)-3-methoxycyclo-pentyl)amino)-2-(1-methyl-1H-imidazol-2-yl)-6-(1-methyl-1H-pyrazol-3-yl)pyrrolo[2,1-f][1,2,4]triazine-5-carboxamide], the IC50 is above 1000 nM.
With `Cn1ccnc1-c1nc(O)c2c(-c3ccccc3)c(-c3cccnc3)cn2n1` [Compound 189, 2-(1-Methyl-1H-imidazol-2-yl)-5-phenyl-6-(pyridin-3-yl)pyrrolo[2,1-f][1,2,4]triazin-4-ol], the IC50 was above 1000 nM.
Regarding `Cc1c(-c2ccn(C)n2)cn2nc(-c3nccn3C)nc(O)c12` [Compound 172, 5-Methyl-2-(1-methyl-1H-imidazol-2-yl)-6-(1-methyl-1H-pyrazol-3-yl)pyrrolo[2,1-f][1,2,4]triazin-4-ol], the IC50 was above 1000 nM.
With `Cc1c(-c2ccn(C)n2)cn2nc(-c3nccn3C)nc(Nc3ccc(N4CCCC4)cn3)c12` [Compound 228, 5-Methyl-2-(1-methyl-1H-imidazol-2-yl)-6-(1-methyl-1H-pyrazol-3-yl)-N-(5-(pyrrolidin-1-yl)pyridin-2-yl)pyrrolo[2,1-f][1,2,4]triazin-4-amine], the IC50 is below 150 nM.
Take `COc1cc(Nc2nc(-c3nccn3C)nn3cc(-c4ccn(C)n4)c(C)c23)ncc1C1CC1` [Compound 238, N-(5-Cyclopropyl-4-methoxypyridin-2-yl)-5-methyl-2-(1-methyl-1H-imidazol-2-yl)-6-(1-methyl-1H-pyrazol-3-yl)pyrrolo[2,1-f][1,2,4]triazin-4-amine]: the IC50 is below 150 nM.
Still for that read-out and setting: to `Cc1c(-c2ccn(C)n2)cn2nc(-c3nccn3C)nc(Nc3cc(OCCNC(=O)CCCC[C@H]4SC[C@H]5NC(=O)N[C@H]54)ccn3)c12` [Compound 186, N-(2-((2-((5-Methyl-2-(1-methyl-1H-imidazol-2-yl)-6-(1-methyl-1H-pyrazol-3-yl)pyrrolo[2,1-f][1,2,4]triazin-4-yl)amino)pyridin-4-yl)oxy)ethyl)-5-((3aR,4R,6aS)-2-oxohexahydro-1H-thieno[3,4-d]imidazol-4-yl)pentanamide] belongs above 1000 nM; to `Cc1c(-c2ccn(C)n2)cn2nc(-c3nccn3C)nc(Nc3cc(N4CCOCC4)ccn3)c12` [Compound 222, 5-Methyl-2-(1-methyl-1H-imidazol-2-yl)-6-(1-methyl-1H-pyrazol-3-yl)-N-(4-morpholinopyridin-2-yl)pyrrolo[2,1-f][1,2,4]triazin-4-amine], below 150 nM; to `Cc1c(-c2ccn(C)n2)cn2nc(-c3nccn3C)nc(Nc3ccc(C(F)F)cn3)c12` [Compound 234, N-(5-(Difluoromethyl)pyridin-2-yl)-5-methyl-2-(1-methyl-1H-imidazol-2-yl)-6-(1-methyl-1H-pyrazol-3-yl)pyrrolo[2,1-f][1,2,4]triazin-4-amine], below 150 nM.
With `CCNC(=O)c1c(-c2ccn(C)n2)cn2nc(-c3nccn3C)nc(Nc3cc(OC)ccn3)c12` [Compound 173, N-Ethyl-4-((4-methoxypyridin-2-yl)amino)-2-(1-methyl-1H-imidazol-2-yl)-6-(1-methyl-1H-pyrazol-3-yl)pyrrolo[2,1-f][1,2,4]triazine-5-carboxamide], the IC50 was 510 to 1000 nM.
Same read-out and setting: to `COCCCNC(=O)c1c(-c2ccn(C)n2)cn2nc(-c3nccn3C)nc(N[C@H]3CC[C@H](OC)C3)c12` (racemic) [Compound 184, rac 4-(((1S,3S)-3-methoxycyclo-pentyl)amino)-N-(3-methoxypropyl)-2-(1-methyl-1H-imidazol-2-yl)-6-(1-methyl-1H-pyrazol-3-yl)pyrrolo[2,1-f][1,2,4]triazine-5-carboxamide] belongs above 1000 nM; to `Cc1cnc2c(c1)CCN2c1nc(-c2nccn2C)nn2cc(-c3ccn(C)n3)c(C)c12` [Compound 239, 5-Methyl-2-(1-methyl-1H-imidazol-2-yl)-6-(1-methyl-1H-pyrazol-3-yl)-4-(5-methyl-2,3-dihydro-1H-pyrrolo[2,3-b]pyridin-1-yl)pyrrolo[2,1-f][1,2,4]triazine], below 150 nM.
